US8071507B2, “Plant growth regulating and fungicidal compositions” (Syngenta Crop Protection, Inc., priority 2005, dated 2011)

Tests used:
Type in all cases: in vivo
[1] = system: Triticale; test: Plant growth regulation (PGR), pre-emergence, triticale; settings: 14 days
Method: (§1) The compounds are sprayed with a vertical boom sprayer at the mentioned rates (ref. result-tables) pre-plant on the bare soil, then they are incorporated into the soil and the plants are seeded.

[2] = system: Barley; test: Plant growth regulation (PGR), pre-emergence, barley; settings: 14 days
Method: as §1

[3] = system: Summer rape “Hybridol”; test: Plant growth regulation (PGR), post-emergence, summer rape; settings: 14 days after application
Method: (§2) The plants are seeded and grown in a greenhouse until Growth Stage 12 (2 leafs unfolded). Then the compounds/mixture of the compounds are sprayed with a vertical boom sprayer top over the leafs.

[4] = system: Oilseed Rape; test: Plant growth regulation (PGR), pre-emergence, oilseed rape; settings: 14 days
Method: as §1

[5] = system: Oat; test: Plant growth regulation (PGR), pre-emergence, oat; settings: 14 days
Method: as §1

[6] = system: Soybean; test: Plant growth regulation (PGR), pre-emergence, soybean; settings: 14 days
Method: as §1

[7] = system: Winter rape “Colza d'hiver Aviso”; test: Plant growth regulation (PGR), post-emergence, winter rape; settings: 14 days after application
Method: as §2

[8] = system: Wheat; test: Plant growth regulation (PGR), pre-emergence, wheat; settings: 14 days
Method: as §1

[9] = system: Rye; test: Plant growth regulation (PGR), pre-emergence, rye; settings: 14 days
Method: as §1

CC(C)(C)[C@@H](O)[C@@H](Cc1ccc(Cl)cc1)n1cncn1 (racemic) [Paclobutrazole, (2RS,3RS)-1-(4-chlorophenyl)-4,4-dimethyl-2-(1H-1,2,4-triazol-1-yl)-pentan-3-ol]
Observed PGR in % (% Cobs) ([1]; Paclobutrazole 25 mg/L): 10%
Observed PGR in % (% Cobs) ([1]; Paclobutrazole 50 mg/L): 30%
Observed PGR in % (% Cobs) ([2]; Paclobutrazole 12.5 mg/L): 0%
Observed PGR in % (% Cobs) ([2]; Paclobutrazole 25 mg/L): 10%
Observed PGR in % (% Cobs) ([2]; Paclobutrazole 50 mg/L): 30%
Observed PGR in % (% Cobs) ([3]; Paclobutrazole 31.3 g a.i./ha): 17%
Observed PGR in % (% Cobs) ([3]; Paclobutrazole 62.5 g a.i./ha): 23%
Observed PGR in % (% Cobs) ([4]; Paclobutrazole 12.5 mg/L): 40%
Observed PGR in % (% Cobs) ([4]; Paclobutrazole 25 mg/L): 50%
Observed PGR in % (% Cobs) ([4]; Paclobutrazole 50 mg/L): 55%
Observed PGR in % (% Cobs) ([5]; Paclobutrazole 25 mg/L): 30%
Observed PGR in % (% Cobs) ([5]; Paclobutrazole 50 mg/L): 40%
Observed PGR in % (% Cobs) ([6]; Paclobutrazole 25 mg/L): 30%
Observed PGR in % (% Cobs) ([6]; Paclobutrazole 50 mg/L): 50%
Observed PGR in % (% Cobs) ([7]; Paclobutrazole 31.3 g a.i./ha): 30%
Observed PGR in % (% Cobs) ([7]; Paclobutrazole 62.5 g a.i./ha): 33%
Observed PGR in % (% Cobs) ([8]; Paclobutrazole 12.5 mg/L): 20%
Observed PGR in % (% Cobs) ([8]; Paclobutrazole 25 mg/L): 25%
Observed PGR in % (% Cobs) ([8]; Paclobutrazole 50 mg/L): 40%
Observed PGR in % (% Cobs) ([9]; Paclobutrazole 25 mg/L): 25%
Observed PGR in % (% Cobs) ([9]; Paclobutrazole 50 mg/L): 40%

CC1COC(Cn2cncn2)(c2ccc(Oc3ccc(Cl)cc3)cc2Cl)O1 (stereo not drawn) [Difenoconazole, 1-[2-[2-chloro-4-(4-chlorophenoxy)phenyl]-4-methyl-1,3-dioxolan-2-ylmethyl]-1H-1,2,4-triazole]
Observed PGR in % (% Cobs) ([1]; Difenoconazole 50 mg/L): 0%
Observed PGR in % (% Cobs) ([1]; Difenoconazole 100 mg/L): 0%
Observed PGR in % (% Cobs) ([2]; Difenoconazole 25 mg/L): 0%
Observed PGR in % (% Cobs) ([2]; Difenoconazole 50 mg/L): 0%
Observed PGR in % (% Cobs) ([2]; Difenoconazole 100 mg/L): 0%
Observed PGR in % (% Cobs) ([3]; Difenoconazole 62.5 g a.i./ha): 0%
Observed PGR in % (% Cobs) ([3]; Difenoconazole 125 g a.i./ha): 0%
Observed PGR in % (% Cobs) ([4]; Difenoconazole 25 mg/L): 0%
Observed PGR in % (% Cobs) ([4]; Difenoconazole 50 mg/L): 0%
Observed PGR in % (% Cobs) ([4]; Difenoconazole 100 mg/L): 0%
Observed PGR in % (% Cobs) ([5]; Difenoconazole 50 mg/L): 0%
Observed PGR in % (% Cobs) ([5]; Difenoconazole 100 mg/L): 0%
Observed PGR in % (% Cobs) ([6]; Difenoconazole 50 mg/L): 0%
Observed PGR in % (% Cobs) ([6]; Difenoconazole 100 mg/L): 0%
Observed PGR in % (% Cobs) ([7]; Difenoconazole 62.5 g a.i./ha): 0%
Observed PGR in % (% Cobs) ([7]; Difenoconazole 125 g a.i./ha): 0%
Observed PGR in % (% Cobs) ([8]; Difenoconazole 25 mg/L): 0%
Observed PGR in % (% Cobs) ([8]; Difenoconazole 50 mg/L): 0%
Observed PGR in % (% Cobs) ([8]; Difenoconazole 100 mg/L): 0%
Observed PGR in % (% Cobs) ([9]; Difenoconazole 50 mg/L): 0%
Observed PGR in % (% Cobs) ([9]; Difenoconazole 100 mg/L): 0%
